Measurements reported in patent publication US20220409619A1, “INHIBITORS OF HUMAN IMMUNODEFICIENCY VIRUS REPLICATION” (VIIV HEALTHCARE UK (No. 5) LIMITED, priority 2019, published 2022).

How the values were obtained:
[1] = Compound cytotoxicity, XTT-based colorimetric assay; assay type: cell-based; conditions: human; uninfected MT2 cells, day 4, XTT-based colorimetric assay
Description: Compound cytotoxicity and the corresponding CC50 values were determined using the same protocol as described in the antiviral assay except that uninfected cells were used. Cytotoxicity was assessed on day 4 in uninfected MT2 cells by using a XTT (2,3-bis[2-Methoxy-4-nitro-5-sulfophenyl]-2H-tetrazolium-5-carboxyanilide inner salt)-based colorimetric assay (Sigma-Aldrich, St Louis, Mo.).

[2] = system: recombinant NL4-3 virus (nef section replaced with Renilla luciferase gene) in MT-2 cells; assay: HIV cell culture assay (antiviral activity, luciferase readout); assay type: cell-based; conditions: Renilla, NL43
Description: HIV cell culture assay—MT-2 cells, 293T cells and the proviral DNA clone of NL4-3 virus were obtained from the NIH AIDS Research and Reference Reagent Program. MT-2 cells were propagated in RPMI 1640 media supplemented with 10% heat inactivated fetal bovine serum (FBS), 100 μg/ml penicillin G and up to 100 units/mL streptomycin. The 293T cells were propagated in DMEM media supplemented with 10% heat inactivated FBS, 100 μg/mL penicillin G and 100 μg/mL streptomycin. A recombinant NL4-3 proviral clone, in which a section of the nef gene was replaced with the Renilla luciferase gene, was used to make the reference virus used in these studies. The recombinant virus was prepared through transfection of the recombinant NL4-3 proviral clone into 293T cells using Transit-293 Transfection Reagent from Mirus Bio LLC (Madison, Wis.). Supernatent was harvested after 2-3 days and the amount of virus present was titered in MT-2 cells using luciferase enzyme activity as a marker by measuring luciferase enzyme activity. Luciferase was quantitated using the EnduRen Live Cell Substrate from Promega (Madison, Wis.). Antiviral activities of compounds toward the recombinant virus were quantified by measuring luciferase activity in MT-2 cells infected for 4-5 days with the recombinant virus in the presence of serial dilutions of the compound.
The 50% effective concentration (EC50) was calculated by using the exponential form of the median effect equation where (Fa)=1/[1+(ED50/drug conc.)^m] (Johnson V A, Byington R T. Infectivity Assay. In Techniques in HIV Research. ed. Aldovini A, Walker B D. 71-76. New York: Stockton Press. 1990). Curve fitting and analysis were performed with ActivityBase XE Runner software version 9.1.0.4 using model 203 (ID Business Solutions, LTD, Guildford, UK).

Structure (SMILES)	CC50 at 4 days [1] [nM]	EC50 [2] [nM]
O=C(Cn1nc(C(F)F)c2c1C(F)(F)[C@@H]1C[C@H]21)N[C@@H](Cc1cc(F)cc(F)c1)c1nc(-c2ccc(C(F)(F)F)nc2)cc(=O)n1-c1ccc(Cl)c2c(NS(=O)(=O)C3CC3)nn(CC(F)F)c12 (atropisomer, axis not shown; (P)) [Example 38, N-((S)-1-((1P)-1-(4-chloro-3-(cyclopropanesulfonamido)-1-(2,2-difluoroethyl)-1H-indazol-7-yl)-6-oxo-4-(6-(trifluoromethyl)pyridin-3-yl)-1,6-dihydropyrimidin-2-yl)-2-(3,5-difluorophenyl)ethyl)-2-((3bS,4aR)-3-(difluoromethyl)-5,5-difluoro-3b,4,4a,5-tetrahydro-1H-cyclopropa[3,4]cyclopenta[1,2-c]pyrazol-1-yl)acetamide]	> 100	0.39
Cc1ccnc(-c2cc(=O)n(-c3ccc(Cl)c4c(NS(=O)(=O)C5CC5)nn(CC(F)F)c34)c([C@H](Cc3cc(F)cc(F)c3)NC(=O)Cn3nc(C(F)F)c4c3C(F)(F)[C@@H]3C[C@H]43)n2)n1 (atropisomer, axis not shown; (aR)) [Example 43, N-((S)-1-((1′P)-1′-(4-chloro-3-(cyclopropanesulfonamido)-1-(2,2-difluoroethyl)-1H-indazol-7-yl)-4-methyl-6′-oxo-1′,6′-dihydro-[2,4′-bipyrimidin]-2′-yl)-2-(3,5-difluorophenyl)ethyl)-2-((3bS,4aR)-3-(difluoromethyl)-5,5-difluoro-3b,4,4a,5-tetrahydro-1H-cyclopropa[3,4]cyclopenta[1,2-c]pyrazol-1-yl)acetamide]	> 100	0.17
Cn1nc(NS(C)(=O)=O)c2c(Cl)ccc(-n3c([C@H](Cc4cc(F)cc(F)c4)NC(=O)Cn4nc(C(F)F)c5c4C(F)(F)[C@@H]4C[C@H]54)nc(-c4cccc(C(F)(F)F)n4)cc3=O)c21 (atropisomer, axis not shown; (P)) [Example 7, N-((S)-1-((1P)-1-(4-chloro-1-methyl-3-(methylsulfonamido)-1H-indazol-7-yl)-6-oxo-4-(6-(trifluoromethyl)pyridin-2-yl)-1,6-dihydropyrimidin-2-yl)-2-(3,5-difluorophenyl)ethyl)-2-((3bS,4aR)-3-(difluoromethyl)-5,5-difluoro-3b,4,4a,5-tetrahydro-1H-cyclopropa[3,4]cyclopenta[1,2-c]pyrazol-1-yl)acetamide]	> 100	0.53
Cc1cc(C)nc(-c2cc(=O)n(-c3ccc(Cl)c4c(NS(=O)(=O)C5CC5)nn(CC(F)F)c34)c([C@H](Cc3cc(F)cc(F)c3)NC(=O)Cn3nc(C(F)F)c4c3C(F)(F)[C@@H]3C[C@H]43)n2)n1 (atropisomer, axis not shown; (aR)) [Example 34, N-((S)-1-(1′-(4-chloro-3-(cyclopropanesulfonamido)-1-(2,2-difluoroethyl)-1H-indazol-7-yl)-4,6-dimethyl-6′-oxo-1′,6′-dihydro-[2,4′-bipyrimidin]-2′-yl)-2-(3,5-difluorophenyl)ethyl)-2-((3bS,4aR)-3-(difluoromethyl)-5,5-difluoro-3b,4,4a,5-tetrahydro-1H-cyclopropa[3,4]cyclopenta[1,2-c]pyrazol-1-yl)acetamide]	> 100	0.24
CCOc1cnc(-c2cc(=O)n(-c3ccc(Cl)c4c(NS(C)(=O)=O)nn(C)c34)c([C@H](Cc3cc(F)cc(F)c3)NC(=O)Cn3nc(C(F)F)c4c3C(F)(F)[C@@H]3C[C@H]43)n2)nc1 (atropisomer, axis not shown; (aR)) [Example 14, N-((S)-1-((1′P)-1′-(4-chloro-1-methyl-3-(methylsulfonamido)-1H-indazol-7-yl)-5-ethoxy-6′-oxo-1′,6′-dihydro-[2,4′-bipyrimidin]-2′-yl)-2-(3,5-difluorophenyl)ethyl)-2-((3bS,4aR)-3-(difluoromethyl)-5,5-difluoro-3b,4,4a,5-tetrahydro-1H-cyclopropa[3,4]cyclopenta[1,2-c]pyrazol-1-yl)acetamide]	> 100	0.042
O=C(Cn1nc(C(F)F)c2c1C(F)(F)[C@@H]1C[C@H]21)N[C@@H](Cc1cc(F)cc(F)c1)c1nc(-c2ccc(Cl)cn2)cc(=O)n1-c1ccc(Cl)c2c(NS(=O)(=O)C3CC3)nn(CC(F)F)c12 (atropisomer, axis not shown; (P)) [Example 35, N-((S)-1-((1P)-1-(4-chloro-3-(cyclopropanesulfonamido)-1-(2,2-difluoroethyl)-1H-indazol-7-yl)-4-(5-chloropyridin-2-yl)-6-oxo-1,6-dihydropyrimidin-2-yl)-2-(3,5-difluorophenyl)ethyl)-2-((3bS,4aR)-3-(difluoromethyl)-5,5-difluoro-3b,4,4a,5-tetrahydro-1H-cyclopropa[3,4]cyclopenta[1,2-c]pyrazol-1-yl)acetamide]	> 100	0.72
O=C(Cn1nc(C(F)F)c2c1C(F)(F)[C@@H]1C[C@H]21)N[C@@H](Cc1cc(F)cc(F)c1)c1nc(-c2cccc(F)n2)cc(=O)n1-c1ccc(Cl)c2c(NS(=O)(=O)C3CC3)nn(CC(F)F)c12 (atropisomer, axis not shown; (P)) [Example 28, N-((S)-1-((1P)-1-(4-chloro-3-(cyclopropanesulfonamido)-1-(2,2-difluoroethyl)-1H-indazol-7-yl)-4-(6-fluoropyridin-2-yl)-6-oxo-1,6-dihydropyrimidin-2-yl)-2-(3,5-difluorophenyl)ethyl)-2-((3bS,4aR)-3-(difluoromethyl)-5,5-difluoro-3b,4,4a,5-tetrahydro-1H-cyclopropa[3,4]cyclopenta[1,2-c]pyrazol-1-yl)acetamide]	> 100	0.39
Cn1nc(NS(C)(=O)=O)c2c(Cl)ccc(-n3c([C@H](Cc4cc(F)cc(F)c4)NC(=O)Cn4nc(C(F)F)c5c4C(F)(F)[C@@H]4C[C@H]54)nc(-c4nccc(C(F)F)n4)cc3=O)c21 (atropisomer, axis not shown; (aR)) [Example 5, N-((S)-1-((1′P)-1′-(4-chloro-1-methyl-3-(methylsulfonamido)-1H-indazol-7-yl)-4-(difluoromethyl)-6′-oxo-1′,6′-dihydro-[2,4′-bipyrimidin]-2′-yl)-2-(3,5-difluorophenyl)ethyl)-2-((3bS,4aR)-3-(difluoromethyl)-5,5-difluoro-3b,4,4a,5-tetrahydro-1H-cyclopropa[3,4]cyclopenta[1,2-c]pyrazol-1-yl)acetamide]	> 100	0.054
COc1cncc(-c2cc(=O)n(-c3ccc(Cl)c4c(NS(=O)(=O)C5CC5)nn(CC(F)F)c34)c([C@H](Cc3cc(F)cc(F)c3)NC(=O)Cn3nc(C(F)F)c4c3C(F)(F)[C@@H]3C[C@H]43)n2)n1 (atropisomer, axis not shown; (P)) [Example 40, N-((S)-1-((1P)-1-(4-chloro-3-(cyclopropanesulfonamido)-1-(2,2-difluoroethyl)-1H-indazol-7-yl)-4-(6-methoxypyrazin-2-yl)-6-oxo-1,6-dihydropyrimidin-2-yl)-2-(3,5-difluorophenyl)ethyl)-2-((3bS,4aR)-3-(difluoromethyl)-5,5-difluoro-3b,4,4a,5-tetrahydro-1H-cyclopropa[3,4]cyclopenta[1,2-c]pyrazol-1-yl)acetamide]	> 100	0.6
O=C(Cn1nc(C(F)F)c2c1C(F)(F)[C@@H]1C[C@H]21)N[C@@H](Cc1cc(F)cc(F)c1)c1nc(-c2nccc(C(F)F)n2)cc(=O)n1-c1ccc(Cl)c2c(NS(=O)(=O)C3CC3)nn(CC(F)F)c12 (atropisomer, axis not shown; (aR)) [Example 27, N-((S)-1-((1′P)-1′-(4-chloro-3-(cyclopropanesulfonamido)-1-(2,2-difluoroethyl)-1H-indazol-7-yl)-4-(difluoromethyl)-6′-oxo-1′,6′-dihydro-[2,4′-bipyrimidin]-2′-yl)-2-(3,5-difluorophenyl)ethyl)-2-((3bS,4aR)-3-(difluoromethyl)-5,5-difluoro-3b,4,4a,5-tetrahydro-1H-cyclopropa[3,4]cyclopenta[1,2-c]pyrazol-1-yl)acetamide]	> 100	0.13
CCc1cnc(-c2cc(=O)n(-c3ccc(Cl)c4c(NS(=O)(=O)C5CC5)nn(CC(F)F)c34)c([C@H](Cc3cc(F)cc(F)c3)NC(=O)Cn3nc(C(F)F)c4c3C(F)(F)[C@@H]3C[C@H]43)n2)nc1 (atropisomer, axis not shown; (aR)) [Example 39, N-((S)-1-((1′P)-1′-(4-chloro-3-(cyclopropanesulfonamido)-1-(2,2-difluoroethyl)-1H-indazol-7-yl)-5-ethyl-6′-oxo-1′,6′-dihydro-[2,4′-bipyrimidin]-2′-yl)-2-(3,5-difluorophenyl)ethyl)-2-((3bS,4aR)-3-(difluoromethyl)-5,5-difluoro-3b,4,4a,5-tetrahydro-1H-cyclopropa[3,4]cyclopenta[1,2-c]pyrazol-1-yl)acetamide]	> 100	0.059
